In PMC10098062 (Molecular Plant Pathology, 2023):

Biological target: T1, SstF (SFN-sensing transcription factor, LysR family) (Xanthomonas campestris, UniProt Q8PAP2)
T1 sequence (Q8PAP2 1-344): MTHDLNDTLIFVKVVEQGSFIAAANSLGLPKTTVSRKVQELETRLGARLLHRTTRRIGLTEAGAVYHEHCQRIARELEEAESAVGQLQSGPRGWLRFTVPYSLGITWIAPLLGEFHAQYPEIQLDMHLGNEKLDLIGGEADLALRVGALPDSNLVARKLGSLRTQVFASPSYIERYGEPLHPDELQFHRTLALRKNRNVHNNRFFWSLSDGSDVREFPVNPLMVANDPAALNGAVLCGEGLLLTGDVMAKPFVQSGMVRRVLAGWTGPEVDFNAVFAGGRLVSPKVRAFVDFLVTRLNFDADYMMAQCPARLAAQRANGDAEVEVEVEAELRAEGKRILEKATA
Assay: SPR
Assay type: binding

C[S+]([O-])CCCCN=C=S (stereo not shown) [SFN, Sulforaphane]
Kd: 17.3 nM
